# Experiments:
# [1] = molecular target: T1, EBNA1-CAC (EBNA1 DNA-binding domain) (Epstein-Barr virus, UniProt P03211, C531S/C560S/C591S/C598S); test: SPR affinity assay, EBNA1-CAC immobilized on CM5 chip via thiol coupling; set-up: species or system Epstein–Barr virus (EBV); conditions: Biacore S200, 1:1 interaction model, global Rmax, fragment 79-900 μM, 5% DMSO, pH 7.1
# T1 construct: His-tag-SUMO (N, cleaved yes); made in house; host or cells: Escherichia coli
# T1 sequence (P03211 459-607 C531S/C560S/C591S/C598S): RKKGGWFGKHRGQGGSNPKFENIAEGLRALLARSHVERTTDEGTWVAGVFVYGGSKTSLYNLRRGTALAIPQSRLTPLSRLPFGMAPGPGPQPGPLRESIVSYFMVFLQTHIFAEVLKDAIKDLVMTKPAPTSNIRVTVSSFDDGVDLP
# Protocol: SPR experiments were performed on a Biacore™ S200 instrument (GE Healthcare). […] As an alternative, we developed a thiol coupling method to immobilize EBNA1 and LANA to the Biacore sensor chip. We synthesized a construct that expressed a version of EBNA1 and LANA DNA-binding domains with the internal cysteines mutated to serine and Cys-Ala-Cys added to the C terminus (EBNA1-CAC and LANA-CAC).
# The 1000 fragments from the library were screened at a concentration of 1 mM (5% DMSO). Hits were selected on the basis of the following criteria: a relative binding response normalized with respect to the positive control, no indication that multiple fragments were bound, R > Rmax (R = Response units, Rmax = the maximum binding capacity based on control fragment) and sensorgram shapes consistent with fragment binding (rapid on and off rates). Based on these criteria, 94 EBNA1 fragments and 104 LANA fragments were selected for further validation to measure binding affinities, which were determined to range from 0.2 to >10 mM. […]
# To validate fragments from the primary screen, an affinity assay was performed. […] Binding sensorgrams were processed by first subtracting the binding response recorded from the control surface (reference flow cell), followed by solvent correction. […] Affinities were assessed using a global Rmax determined by reference compounds. […]
# [2] = molecular target: T2, EBNA1 (468–607) (Epstein-Barr virus, UniProt P03211); test: X-ray crystallography, fragment soaked into preformed EBNA1 crystals; format: binding, Epstein–Barr virus (EBV); conditions: crystal soak 4 h; 1.3 Å structure, PDB 6VH6; pocket that contacts the DNA phosphate backbone
# T2 construct: using purified EBNA1 (468–607) mixed in a 2 μl:2 μl ratio with reservoir solution; made in house
# Source text: We determined the high-resolution crystal structure of one fragment bound to EBNA1 (Figure 4). We soaked the fragment AC37287 into preformed crystals of EBNA1 (468–607). The crystal of AC37287 diffracted to 1.3 Ångstroms and was solved by isomorphous replacement. The electron density around AC38287 is unambiguous at this resolution (Figure 4A). The aliphatic portion of AC37287 binds into a deep hydrophobic pocket made up of the hydrophobic residues I481, L520, L582, V483 and I593 (Figure 4B). The lactone is sandwiched between residues N519 and T590 within the range of a hydrogen bond of N519 (Figure 4C). This molecule binds in a region that is important for DNA binding (Figure 4D).
# Crystals were grown using the vapor diffusion method in 24–48 h using purified EBNA1 (468–607) mixed in a 2 μl:2 μl ratio with reservoir solution (50 mM MES, pH 6.5, 0–150 mM NaCl, and 10 mM DTT). Crystals were transferred to a solution containing 25–30% glycerol and 0.2 μl of 50 mM of AC37287, incubated for 4 h and flash frozen for data collection. Data were collected on the 21BM beamline at the Argonne Light Source (ALS) at Argonne National Laboratory. Data were indexed, reduced, and scaled using HKL3000. The structures were solved by isomorphous replacement. Models were refined in PHENIX, version 1.17, using simulated annealing, minimization, and individual B-factor refinement. […]
# T2 sequence (P03211 468-607): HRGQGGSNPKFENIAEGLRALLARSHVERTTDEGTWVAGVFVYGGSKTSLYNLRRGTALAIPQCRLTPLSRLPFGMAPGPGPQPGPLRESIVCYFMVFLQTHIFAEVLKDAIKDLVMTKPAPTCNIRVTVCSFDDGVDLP
SMILES,Kd [1],fragment binding observed in crystal structure [2]
OCCCCn1cnc2cc(Cl)c(Cl)cc21 [SPB07625],2100 µM,
Cc1ccc2oc(=O)cc(O)c2c1 [AC37287],,binds in this pocket of EBNA1

# Source: article PMC7180839, “Biophysical Screens Identify Fragments That Bind to the Viral DNA-Binding Proteins EBNA1 and LANA” (Molecules, 2020)
